Measurements reported in PubChem BioAssay (NCI).
Values joined by “and” are separate entries in the source; they are usually repeats but may differ in a detail not shown here. Identical values can stand only once.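 Each compound was tested at five concentrations against cells in 96-well plates for 48 hours. GI50 = concentration required for 50% inhibition of growth. TGI is the concentration that stops growth completely.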

Tests used:
Assay in all cases: NCI tumour cell line growth inhibition, 48 h
[1] = system: SK-MEL-2 melanoma
[2] = system: SK-MEL-28 melanoma
[3] = system: T-47D breast
[4] = system: NCI-H23 lung
[5] = system: MCF7 breast
[6] = system: DMS 114 small cell lung
[7] = system: HCT-116 colon
[8] = system: MDA-N
[9] = system: XF 498 CNS
[10] = system: DU-145 prostate
[11] = system: HOP-18 NSCLC
[12] = system: KM20L2 colon
[13] = system: SNB-75 CNS
[14] = system: OVCAR-3 ovarian
[15] = system: DMS 273 small cell lung
[16] = system: M19-MEL melanoma

## COc1ccc2c(c1)c1c(C)c3cnccc3c(C)c1n2CCCN
[1]
  GI50: 193 nM
  TGI: 815 nM and 393 nM
[2]
  TGI: 892 nM and 1100 nM
[3]
  TGI: 760 nM
[4]
  TGI: 601 nM
[5]
  GI50: 16.2 nM
  TGI: 663 nM and 108 nM
[6]
  TGI: 669 nM
[7]
  GI50: 65.9 nM
  TGI: 303 nM and 1060 nM
[8]
  TGI: 306 nM
[9]
  TGI: 942 nM
[10]
  TGI: 389 nM
[11]
  TGI: 1550 nM
[12]
  TGI: 685 nM
[13]
  GI50: 64 nM
  TGI: 791 nM and 206 nM
[14]
  GI50: 119 nM
  TGI: 1180 nM and 495 nM
[15]
  TGI: 382 nM
[16]
  TGI: 633 nM
